Results published in patent US12157741B2, “Macrocyclic inhibitors of DYRK1A” (DANA-FARBER CANCER INSTITUTE, INC., priority 2018, dated 2024).
Read-outs that look alike come from different tables or passages of the source.

Legend:
Type in all cases: binding
various enzymes [1] = target: various enzymes (Homo sapiens, UniProt Q8TF76); conditions: compound 1 uM
Experimental: (§1) Ambit profiling was conducted in accordance with the manufacturer's instructions.

various enzymes [2] = target: various enzymes (Homo sapiens, UniProt P53779); conditions: compound 1 uM
Chain of various enzymes (Homo sapiens, UniProt P53779) (P53779 whole entry): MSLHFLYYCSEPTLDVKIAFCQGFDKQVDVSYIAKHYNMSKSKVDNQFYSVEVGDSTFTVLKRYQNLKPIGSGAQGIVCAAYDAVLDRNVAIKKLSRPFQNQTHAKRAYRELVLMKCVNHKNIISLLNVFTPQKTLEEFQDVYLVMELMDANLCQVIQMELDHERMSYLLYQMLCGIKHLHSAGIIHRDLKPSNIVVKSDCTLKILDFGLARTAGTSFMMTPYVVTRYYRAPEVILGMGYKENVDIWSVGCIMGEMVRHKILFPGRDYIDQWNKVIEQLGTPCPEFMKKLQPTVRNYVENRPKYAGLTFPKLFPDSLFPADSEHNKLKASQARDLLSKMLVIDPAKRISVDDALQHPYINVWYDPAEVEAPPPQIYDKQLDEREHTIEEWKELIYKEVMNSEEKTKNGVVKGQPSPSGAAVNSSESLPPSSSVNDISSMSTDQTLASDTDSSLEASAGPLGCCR
Experimental: as §1

various enzymes [3] = target: various enzymes (Homo sapiens, UniProt O14965); conditions: compound 1 uM
Experimental: as §1

various enzymes [4] = target: various enzymes (Homo sapiens, UniProt Q9BUB5); conditions: compound 1 uM
Experimental: as §1

various enzymes [5] = target: various enzymes (Homo sapiens, UniProt P42336, I800L)
Experimental: as §1

various enzymes [6] = target: various enzymes (Homo sapiens, UniProt P54756); conditions: compound 1 uM
Experimental: as §1

various enzymes [7] = target: various enzymes (Homo sapiens, UniProt P36888, D835Y)
Experimental: as §1

various enzymes [8] = target: T1, various enzymes (Homo sapiens, UniProt Q12852); conditions: compound 1 uM
T1 sequence (Q12852 1-859): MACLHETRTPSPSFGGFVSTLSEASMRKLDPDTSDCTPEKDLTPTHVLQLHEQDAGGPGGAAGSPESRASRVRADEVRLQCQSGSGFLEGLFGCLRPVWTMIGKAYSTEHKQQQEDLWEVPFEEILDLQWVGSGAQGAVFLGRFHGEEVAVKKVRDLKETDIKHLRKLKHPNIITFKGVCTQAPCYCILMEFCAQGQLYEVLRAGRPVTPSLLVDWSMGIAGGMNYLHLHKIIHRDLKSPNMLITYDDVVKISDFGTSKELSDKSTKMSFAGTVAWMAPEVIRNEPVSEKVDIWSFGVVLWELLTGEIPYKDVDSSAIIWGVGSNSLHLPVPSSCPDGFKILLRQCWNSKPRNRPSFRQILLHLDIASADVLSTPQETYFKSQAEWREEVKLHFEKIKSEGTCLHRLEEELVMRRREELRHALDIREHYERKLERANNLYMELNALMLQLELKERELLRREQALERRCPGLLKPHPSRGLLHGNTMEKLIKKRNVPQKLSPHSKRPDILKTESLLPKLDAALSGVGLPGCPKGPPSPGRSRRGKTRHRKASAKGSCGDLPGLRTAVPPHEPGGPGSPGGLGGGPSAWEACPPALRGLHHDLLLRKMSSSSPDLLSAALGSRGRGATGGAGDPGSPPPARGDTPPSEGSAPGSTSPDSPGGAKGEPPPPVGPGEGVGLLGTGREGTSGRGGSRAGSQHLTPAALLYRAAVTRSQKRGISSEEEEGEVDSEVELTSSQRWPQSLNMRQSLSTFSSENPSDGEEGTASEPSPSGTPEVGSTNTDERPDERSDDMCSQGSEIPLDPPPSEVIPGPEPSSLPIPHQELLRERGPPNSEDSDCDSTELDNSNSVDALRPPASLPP
Experimental: as §1

various enzymes [9] = target: various enzymes (Homo sapiens, UniProt P36888, K663Q)
Experimental: as §1

various enzymes [10] = target: various enzymes (Homo sapiens, UniProt Q16584); conditions: compound 1 uM
Chain of various enzymes (Homo sapiens, UniProt Q16584) (Q16584 whole entry): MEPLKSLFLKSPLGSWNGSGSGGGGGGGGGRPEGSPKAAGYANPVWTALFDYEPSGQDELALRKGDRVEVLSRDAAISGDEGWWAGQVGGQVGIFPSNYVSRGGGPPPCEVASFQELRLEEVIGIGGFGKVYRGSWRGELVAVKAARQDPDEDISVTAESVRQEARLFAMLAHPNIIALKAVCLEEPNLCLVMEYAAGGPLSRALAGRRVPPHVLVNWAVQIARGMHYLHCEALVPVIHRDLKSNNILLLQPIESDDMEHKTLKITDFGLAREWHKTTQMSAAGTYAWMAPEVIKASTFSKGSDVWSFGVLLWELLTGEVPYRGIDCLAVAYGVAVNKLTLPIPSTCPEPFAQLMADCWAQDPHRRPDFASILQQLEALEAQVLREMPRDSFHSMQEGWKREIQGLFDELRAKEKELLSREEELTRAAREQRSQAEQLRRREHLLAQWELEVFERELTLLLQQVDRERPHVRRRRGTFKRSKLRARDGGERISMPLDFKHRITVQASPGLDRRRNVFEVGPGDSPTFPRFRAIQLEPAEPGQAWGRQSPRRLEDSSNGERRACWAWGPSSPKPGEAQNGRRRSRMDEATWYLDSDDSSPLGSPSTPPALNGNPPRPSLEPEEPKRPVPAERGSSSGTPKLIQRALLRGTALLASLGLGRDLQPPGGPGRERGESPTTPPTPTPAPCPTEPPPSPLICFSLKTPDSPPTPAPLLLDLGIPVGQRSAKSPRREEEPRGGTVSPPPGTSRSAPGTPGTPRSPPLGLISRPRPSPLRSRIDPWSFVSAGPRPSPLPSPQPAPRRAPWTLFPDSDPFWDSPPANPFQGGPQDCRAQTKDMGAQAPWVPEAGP
Experimental: as §1

various enzymes [11] = target: various enzymes (Homo sapiens, UniProt P36888, R834Q)
Experimental: as §1

various enzymes [12] = target: various enzymes (Homo sapiens, UniProt Q16620); conditions: compound 1 uM
Chain of various enzymes (Homo sapiens, UniProt Q16620) (Q16620 32-822): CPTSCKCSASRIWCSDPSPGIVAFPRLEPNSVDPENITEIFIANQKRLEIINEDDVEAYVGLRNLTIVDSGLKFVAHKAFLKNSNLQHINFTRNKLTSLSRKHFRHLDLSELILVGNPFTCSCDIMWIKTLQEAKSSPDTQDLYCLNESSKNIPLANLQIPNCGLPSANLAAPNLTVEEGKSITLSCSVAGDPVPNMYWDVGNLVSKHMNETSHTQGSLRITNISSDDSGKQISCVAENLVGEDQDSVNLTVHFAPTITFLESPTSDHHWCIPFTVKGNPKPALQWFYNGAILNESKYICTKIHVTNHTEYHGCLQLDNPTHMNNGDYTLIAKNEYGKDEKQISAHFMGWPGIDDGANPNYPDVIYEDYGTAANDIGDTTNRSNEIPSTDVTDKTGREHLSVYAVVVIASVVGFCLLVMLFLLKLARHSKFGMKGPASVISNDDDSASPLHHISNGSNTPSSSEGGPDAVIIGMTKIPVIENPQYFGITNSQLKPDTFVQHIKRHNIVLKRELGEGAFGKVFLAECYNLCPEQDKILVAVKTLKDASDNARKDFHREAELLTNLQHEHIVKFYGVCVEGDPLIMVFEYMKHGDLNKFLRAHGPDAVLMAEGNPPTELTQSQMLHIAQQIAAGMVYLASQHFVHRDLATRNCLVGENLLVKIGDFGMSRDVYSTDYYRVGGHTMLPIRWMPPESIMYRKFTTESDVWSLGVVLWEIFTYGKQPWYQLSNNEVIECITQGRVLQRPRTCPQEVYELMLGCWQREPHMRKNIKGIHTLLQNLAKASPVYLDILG
Experimental: as §1

various enzymes [13] = target: various enzymes (Homo sapiens, UniProt P29322); conditions: compound 1 uM
Experimental: as §1

various enzymes [14] = target: various enzymes (Homo sapiens, UniProt Q15831); conditions: compound 1 uM
Chain of various enzymes (Homo sapiens, UniProt Q15831) (Q15831 whole entry): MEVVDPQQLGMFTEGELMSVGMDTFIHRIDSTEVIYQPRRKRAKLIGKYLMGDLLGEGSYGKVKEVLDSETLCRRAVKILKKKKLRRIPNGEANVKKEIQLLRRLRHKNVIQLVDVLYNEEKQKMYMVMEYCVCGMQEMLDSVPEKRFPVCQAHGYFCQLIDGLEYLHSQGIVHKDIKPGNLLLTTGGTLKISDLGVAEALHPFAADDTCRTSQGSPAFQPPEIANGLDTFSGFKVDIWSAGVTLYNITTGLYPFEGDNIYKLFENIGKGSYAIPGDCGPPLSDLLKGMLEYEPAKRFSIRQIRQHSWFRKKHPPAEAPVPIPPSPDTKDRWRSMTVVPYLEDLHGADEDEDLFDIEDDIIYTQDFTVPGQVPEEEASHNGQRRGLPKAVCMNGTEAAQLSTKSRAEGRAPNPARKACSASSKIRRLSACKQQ
Experimental: as §1

various enzymes [15] = target: various enzymes (Homo sapiens, UniProt P23458); conditions: compound 1 uM
Chain of various enzymes (Homo sapiens, UniProt P23458) (P23458 whole entry): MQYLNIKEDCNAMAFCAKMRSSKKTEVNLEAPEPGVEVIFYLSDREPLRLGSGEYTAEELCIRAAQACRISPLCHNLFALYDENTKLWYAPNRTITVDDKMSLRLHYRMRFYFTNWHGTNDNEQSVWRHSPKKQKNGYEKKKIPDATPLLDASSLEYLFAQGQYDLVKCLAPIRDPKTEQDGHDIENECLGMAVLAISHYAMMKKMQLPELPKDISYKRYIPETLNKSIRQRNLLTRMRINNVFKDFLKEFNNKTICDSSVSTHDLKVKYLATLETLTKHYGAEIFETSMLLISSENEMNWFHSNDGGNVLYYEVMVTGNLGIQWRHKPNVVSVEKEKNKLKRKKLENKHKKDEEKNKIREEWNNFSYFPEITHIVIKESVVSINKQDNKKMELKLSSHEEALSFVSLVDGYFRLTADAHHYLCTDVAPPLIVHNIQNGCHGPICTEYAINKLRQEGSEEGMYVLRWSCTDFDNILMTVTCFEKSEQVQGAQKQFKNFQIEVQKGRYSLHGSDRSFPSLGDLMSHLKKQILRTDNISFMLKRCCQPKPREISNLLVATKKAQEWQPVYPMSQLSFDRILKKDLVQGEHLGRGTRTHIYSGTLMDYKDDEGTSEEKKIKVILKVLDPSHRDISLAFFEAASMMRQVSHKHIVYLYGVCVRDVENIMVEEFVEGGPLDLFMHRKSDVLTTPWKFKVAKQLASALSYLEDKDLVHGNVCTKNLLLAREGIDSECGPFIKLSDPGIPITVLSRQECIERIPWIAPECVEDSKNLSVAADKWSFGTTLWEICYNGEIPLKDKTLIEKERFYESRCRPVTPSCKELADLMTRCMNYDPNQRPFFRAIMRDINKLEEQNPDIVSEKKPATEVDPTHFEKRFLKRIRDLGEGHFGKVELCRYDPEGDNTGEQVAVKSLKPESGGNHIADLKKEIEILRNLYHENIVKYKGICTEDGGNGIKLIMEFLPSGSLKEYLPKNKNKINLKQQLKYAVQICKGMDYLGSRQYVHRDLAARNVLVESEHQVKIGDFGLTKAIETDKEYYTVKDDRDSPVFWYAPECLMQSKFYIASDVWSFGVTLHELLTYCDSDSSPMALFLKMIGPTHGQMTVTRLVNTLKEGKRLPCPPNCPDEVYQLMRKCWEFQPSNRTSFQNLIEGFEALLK
Experimental: as §1

various enzymes [16] = target: T2, various enzymes (Homo sapiens, UniProt O60285); conditions: compound 1 uM
T2 sequence (O60285 1-661): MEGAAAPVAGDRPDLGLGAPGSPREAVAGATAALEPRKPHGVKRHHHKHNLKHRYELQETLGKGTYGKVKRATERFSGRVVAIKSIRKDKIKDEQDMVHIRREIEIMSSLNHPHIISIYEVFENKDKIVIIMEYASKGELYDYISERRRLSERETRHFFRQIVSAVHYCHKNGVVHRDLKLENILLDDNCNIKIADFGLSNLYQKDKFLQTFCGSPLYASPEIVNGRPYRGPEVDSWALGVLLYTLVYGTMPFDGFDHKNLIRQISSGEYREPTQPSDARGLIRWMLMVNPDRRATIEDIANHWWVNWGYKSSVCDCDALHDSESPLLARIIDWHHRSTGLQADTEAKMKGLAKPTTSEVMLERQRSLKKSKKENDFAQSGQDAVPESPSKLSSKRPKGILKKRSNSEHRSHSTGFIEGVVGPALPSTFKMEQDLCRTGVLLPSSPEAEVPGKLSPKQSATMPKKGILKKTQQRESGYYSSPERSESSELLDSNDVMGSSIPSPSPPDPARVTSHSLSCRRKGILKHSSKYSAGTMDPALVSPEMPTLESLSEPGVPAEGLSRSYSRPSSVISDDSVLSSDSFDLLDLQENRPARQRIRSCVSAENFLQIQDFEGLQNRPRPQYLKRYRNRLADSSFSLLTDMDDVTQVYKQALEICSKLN
Experimental: as §1

various enzymes [17] = target: various enzymes (Homo sapiens, UniProt Q9BWU1); conditions: compound 1 uM
Chain of various enzymes (Homo sapiens, UniProt Q9BWU1) (Q9BWU1 whole entry): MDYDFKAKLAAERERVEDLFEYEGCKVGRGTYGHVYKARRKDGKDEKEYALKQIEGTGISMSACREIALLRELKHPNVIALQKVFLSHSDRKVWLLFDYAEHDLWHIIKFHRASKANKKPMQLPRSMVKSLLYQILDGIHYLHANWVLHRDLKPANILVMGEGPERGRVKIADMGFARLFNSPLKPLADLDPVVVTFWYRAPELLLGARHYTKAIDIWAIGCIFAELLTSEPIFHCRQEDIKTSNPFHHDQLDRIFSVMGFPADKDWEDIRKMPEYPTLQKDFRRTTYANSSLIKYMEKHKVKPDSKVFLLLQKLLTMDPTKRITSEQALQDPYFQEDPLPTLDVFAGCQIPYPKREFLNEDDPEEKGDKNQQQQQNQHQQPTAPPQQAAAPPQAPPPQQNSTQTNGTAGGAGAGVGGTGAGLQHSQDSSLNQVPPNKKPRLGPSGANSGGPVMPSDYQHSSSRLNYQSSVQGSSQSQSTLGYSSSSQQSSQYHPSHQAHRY
Experimental: as §1

Chain of various enzymes (Homo sapiens, UniProt Q8TF76) (Q8TF76 whole entry): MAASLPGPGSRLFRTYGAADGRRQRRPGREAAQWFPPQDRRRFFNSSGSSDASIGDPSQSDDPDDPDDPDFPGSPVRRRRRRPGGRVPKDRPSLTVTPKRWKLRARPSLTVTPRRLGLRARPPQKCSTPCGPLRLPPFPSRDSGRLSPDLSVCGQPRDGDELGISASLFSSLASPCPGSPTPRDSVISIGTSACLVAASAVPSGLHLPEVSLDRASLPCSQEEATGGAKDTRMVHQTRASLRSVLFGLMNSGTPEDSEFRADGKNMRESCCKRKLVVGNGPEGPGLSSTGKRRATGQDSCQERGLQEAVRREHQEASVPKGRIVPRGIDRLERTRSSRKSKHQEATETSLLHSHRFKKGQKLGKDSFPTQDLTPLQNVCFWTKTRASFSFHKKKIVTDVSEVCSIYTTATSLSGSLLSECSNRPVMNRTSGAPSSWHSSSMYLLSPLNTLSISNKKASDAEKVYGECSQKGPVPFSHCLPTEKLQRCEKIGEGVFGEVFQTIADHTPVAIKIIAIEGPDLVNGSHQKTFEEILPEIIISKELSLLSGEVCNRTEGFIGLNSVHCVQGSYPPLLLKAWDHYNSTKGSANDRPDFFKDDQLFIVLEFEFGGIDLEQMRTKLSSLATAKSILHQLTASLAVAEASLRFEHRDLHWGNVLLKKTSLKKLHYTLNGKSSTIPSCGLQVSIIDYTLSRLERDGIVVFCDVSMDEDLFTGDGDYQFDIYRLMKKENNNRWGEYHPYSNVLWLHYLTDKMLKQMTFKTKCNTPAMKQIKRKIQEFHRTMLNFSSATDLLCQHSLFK

SMILES | Ambit profiling: HASPIN (various enzymes [1]) | Ambit profiling: JNK3 (various enzymes [2]) | Ambit profiling: AURKA (various enzymes [3]) | Ambit profiling: MKNK1 (various enzymes [4]) | Ambit profiling: EPHA5 (various enzymes [6]) | Ambit profiling: DLK (various enzymes [8]) | Ambit profiling: MLK3 (various enzymes [10]) | Ambit profiling: TRKB (various enzymes [12]) | Ambit profiling: EPHA8 (various enzymes [13]) | Ambit profiling: LKB1 (various enzymes [14]) | Ambit profiling: JAK1(JH1domain-catalytic) (various enzymes [15]) | Ambit profiling: JAK1(JH2domain-pseudokinase) (various enzymes [15]) | Ambit profiling: ARK5 (various enzymes [16]) | Ambit profiling: CDK11 (various enzymes [17]) | other results
CC(C)N1Cc2nn(C)cc2-c2cnc3[nH]cc(c3c2)-c2cn(nc2C(F)(F)F)CCCC1=O [Compound 45, (Z)-5-isopropyl-31-methyl-13-(trifluoromethyl)-11H,21H,31H-5-aza-2(3,5)-pyrrolo[2,3-b]pyridina-1(4,1),3(4,3)-dipyrazolacyclononaphan-6-one] | 2.3 | 29 | 0.6 | 100 | 92 | 32 | 28 | 0.25 | 8.7 | 100 | 36 | 65 | 100 | 100 | Ambit profiling: PIK3CA(I800L) (various enzymes [5]; compound 1 uM): 87; Ambit profiling: FLT3(D835Y) (various enzymes [7]; compound 1 uM): 1.3; Ambit profiling: FLT3(K663Q) (various enzymes [9]; compound 1 uM): 2; Ambit profiling: FLT3(R834Q) (various enzymes [11]; compound 1 uM): 8.7
COc1c2c(nn1C)CN(C(C)C)C(=O)CCCn1cc(c(C(F)(F)F)n1)-c1c[nH]c3ncc-2cc13 [Compound 50, (Z)-5-isopropyl-35-methoxy-31-methyl-13-(trifluoromethyl)-11H,21H,31H-5-aza-2(3,5)-pyrrolo[2,3-b]pyridina-1(4,1),3(4,3)-dipyrazolacyclononaphan-6-one] | 42 | 8.8 | 15 | 83 | 67 | 25 | 11 | 0 | 26 | 33 | 100 | 81 | 100 | 49 | Ambit profiling: PIK3CA(I800L) (various enzymes [5]): 86; Ambit profiling: FLT3(D835Y) (various enzymes [7]): 0.7; Ambit profiling: FLT3(K663Q) (various enzymes [9]): 0.9; Ambit profiling: FLT3(R834Q) (various enzymes [11]): 0
